Key:
[1] = tested on: GSH levels in the liver and in the kidney; assay: GSH levels in liver and kidney after 35S-labeled test compound, GSH synthesis inhibited by buthionine sulfoximine (Example 5); format: in vivo; conditions: mice, i.p. 7.5 mmol/kg, two hours after treatment, buthionine sulfoximine 2 mmol/kg 14 and 4 hours before dissection
Experimental: Groups of 3 or 4 mice, each having a body weight of 18 to 22g, were starved over a period of 12 hours and treated intraperitoneally with a dose of 7.5 mmol/kg of the test compound labeled by ^35 S (GSH labeled by ^35 S was used as the starting material). Two hours after the treatment, the test mice were dissected, and the liver and kidney were taken out. These organs were homogenized in 5 fold volume of 5% sulfosalicylic acid and centrifuged over a period of 5 minutes to give 0.05 ml of a supernatant fluid. The supernatant fluid was admixed with 0.95 ml of water and 4 ml of monofluorine scintillation fluid, and the ^35 S content was assayed by the use of an LKB scintillation counter. On the other hand, the supernatant fluid was treated with monobromobimane and subjected to HPLC to determine the amount of the test compound. The intracellular GSH synthesis was inhibited by administering intraperitoneally 2 mmol/kg of buthionine sulfoximine 14 hours and 4 hours before the dissection.

[2] = tested on: GSH level in the liver and in the kidney; assay: GSH level in liver and kidney of starved mice (Example 6); format: in vivo; conditions: i.p. 10 mmol/kg, 2 to 3 hours after the administration
Experimental: The test compound was dissolved in sterile water to give a test solution. Groups of 3 mice, each having a body weight of 20 to 25 g, were starved over a period of 24 hours and treated intraperitoneally with a dose of 10 mmol/kg of the test compound. Mice were dissected by every two hours, and the liver and kidney were taken out. GSH analysis was performed on each of the organs.

GSH level in the liver = GSH level in the liver after sublethal acetaminophen (Example 7); format: in vivo; conditions: acetaminophen 2.5 mmol/kg i.p.; for GSH level in the liver: starved mice, test compound 10 mmol/kg i.p. half an hour later
Experimental: Groups of three starved mice were intraperitoneally treated with 2.5 mmol/kg (less than the lethal dose) of acetaminophen, and half an hour later 10 mmol/kg of the test compound was intraperitoneally administered to the mice. […] When other thiols such as L-cysteine and L-cysteine methyl ester were administered under the same conditions, the GSH level in the liver was markedly low.

mice [3] = assay: Survival of starved mice after lethal dose of acetaminophen (Example 8); format: in vivo; conditions: acetaminophen 5 mmol/kg i.p., test compound 10 mmol/kg one hour later, 15 mice, 7 days
Text: Starved mice were intraperitoneally treated with 5 mmol/kg (lethal dose) of acetaminophen and, one hour later, with 10 mmol/kg of the test compound.

[4] = tested on: glutamic-pyruvic acid transaminase (GPT) activity in serum; assay: Serum GPT activity after acetaminophen (Example 9, Table 1); format: in vivo, Male ICR mice; conditions: half an hour after acetaminophen 2.5 mmol/kg, blood 8 hours after acetaminophen, ± SD
Experimental: Male ICR mice, each having a body weight of 30 to 40 g, were starved over a period of 15 hours and intraperitoneally treated with 2.5 mmol/kg of acetaminophen. The acetaminophen was used as a solution in Cremophore buffer (i.e. physiological saline solution containing 10% Cremophore and 1.5% ethanol). Half an hour later a designed amount of the test compound was intraperitoneally administered to the mice. The test compound was used as a solution in physiological saline adjusted to pH 6.5. […] Then, the glutamic-pyruvic acid transaminase (GPT) activity in serum was assayed. The results are shown in Table 1 as a percentage to that of the control group to which only acetaminophen was administered.
Note: Figure is a percentage of blood GPT activity to that of Control
Group (± Standard Deviation (n = 4 - 16)).

[5] = tested on: glutathione level of the liver and kidney; assay: Glutathione levels of liver and kidney of fasted mice given glutathione ester or glutathione (Example 1, Comparative Example 1); format: in vivo; conditions: for glutathione in the kidney / glutathione level of the liver: fasted mice, i.p. 10 millimoles per kilogram, 2 hours after administration, vs saline controls
Experimental: A solution of the glutathione ester was prepared in aseptic water. […] At intervals of 2 hours, as shown in FIGS. 1(a) and (b), the animals were decapitated and the liver and kidney tissues were removed and analyzed for glutathione. Using groups of 3 mice each, values are given as means ±S.D.

[6] = tested on: level of liver glutathione; conditions: for glutathione level of the liver: fasted mice, acetaminophen 2.5 mmol/kg i.p., test compound 10 mmol/kg one-half hour later
Experimental: In this example, fasted mice were injected intraperitoneally with acetaminophen (2.5 mmol/kg), and one-half hour later (indicated by arrow in FIG. 3), they were given GSH monomethyl ester, GSH, L-cysteine, L-cysteine methyl ester (10 mmol/kg) or an equivalent volume of 0.15 M NaCl (control). Tissue GSH levels were determined at the indicated intervals on groups (3) of mice; values are means ±S.D.

mice [7] = tested on: mice
[8] = tested on: glutathione levels of the liver and kidney; assay: Glutathione levels of liver and kidney of mice pretreated with buthionine sulfoximine (Example 2); format: in vivo
Text: Controls were again given saline, with tissue levels of GSH being determined at the indicated intervals. Values are means ±S.D., using groups of 3 mice each.

[9] = buthionine sulfoximine 2 mmol/kg, before ester
[10] = mice pretreated with 2 mmol/kg buthionine sulfoximine, ester 10 mmol/kg i.p. 4 hours after the inhibitor

Compound | GSH level in the kidney [1] | GSH level in the liver [1] | GSH level in the kidney [2] | GSH level in the liver [2] | GSH level in the liver (GSH level in the liver) | survival (mice [3]) | percentage of blood GPT activity to that of Control Group ([4]; Dosage 0.01 mmol/kg i.p.) [%] | percentage of blood GPT activity to that of Control Group ([4]; Dosage 0.1 mmol/kg i.p.) [%] | percentage of blood GPT activity to that of Control Group ([4]; Dosage 0.3 mmol/kg i.p.) [%] | percentage of blood GPT activity to that of Control Group ([4]; Dosage 1 mmol/kg i.p.) [%] | glutathione level of the liver [6] | other results
CCCCCCOC(=O)CNC(=O)[C@H](CS)NC(=O)CC[C@H](N)C(=O)O [GSH mono-n-hexyl ester, n-Hexyl γ-L-glutamyl-L-cysteinylglycinate] | more than 2.0 μmol/g | more than 1.0 μmol/g | substantial elevation | substantial elevation | marked elevation | survived | 100.6 ± 31.3 | 60.6 ± 15.8 | 13.2 ± 0.3 | 3.0 ± 0.3 | – | percentage of blood GPT activity to that of Control Group ([4]; Dosage 0.03 mmol/kg i.p.): 82.3 ± 33.5%
CC(C)COC(=O)CNC(=O)[C@H](CS)NC(=O)CC[C@H](N)C(=O)O [GSH monoisobutyl ester, Isobutyl γ-L-glutamyl-L-cysteinylglycinate] | more than 2.0 μmol/g | more than 1.0 μmol/g | substantial elevation | substantial elevation | marked elevation | survived | 84.1 ± 13.0 | 44.8 ± 14.8 | – | 3.6 ± 0.4 | – | –
CC(C)OC(=O)CNC(=O)[C@H](CS)NC(=O)CC[C@H](N)C(=O)O [GSH monoisopropyl ester, Isopropyl γ-L-glutamyl-L-cysteinylglycinate] | more than 2.0 μmol/g | more than 1.0 μmol/g | substantial elevation | substantial elevation | marked elevation | survived | 75.2 ± 15.0 | 19.8 ± 7.9 | 8.8 ± 3.5 | 3.8 ± 0.5 | – | percentage of blood GPT activity to that of Control Group ([4]; Dosage 0.03 mmol/kg i.p.): 51.2 ± 15.6%
N[C@@H](CCC(=O)N[C@@H](CS)C(=O)NCC(=O)O)C(=O)O [GSH, L-γ-glutamyl-L-cysteinyl-glycine, reference compound] | 0.560 µmol/g | 0.582 µmol/g | slight elevation | No elevation | – | – | – | 105.3 ± 20.1 | 68.5 ± 16.3 | 4.2 ± 0.5 | – | glutathione in the kidney [5]: only a slight effect; glutathione level of the liver [5]: no effect
COC(=O)[C@@H](N)CS [L-cysteine methyl ester, reference compound] | – | – | – | – | markedly low | – | – | – | – | – | much less | –
N[C@@H](CS)C(=O)O [L-cysteine, reference compound] | – | – | – | – | markedly low | – | – | – | – | – | much less | –
CC(=O)Nc1ccc(O)cc1 [acetaminophen, reference compound] | – | – | – | – | – | – | – | – | – | – | – | level of liver glutathione after acetaminophen alone ([6]; sublethal dose 2.5 mmol/kg i.p., control given 0.15 M NaCl): marked decrease; GSH level in the liver after acetaminophen alone (GSH level in the liver; control group given 0.15 M saline): Marked fall; lethality of acetaminophen alone (mice [7]; 5 mmole per kilogram, 40 mice, within 7 days): all of the mice died
CCCCS(=N)(=O)CCC(N)C(=O)O (centres unmarked) [buthionine sulfoximine, reference compound] | – | – | – | – | – | – | – | – | – | – | – | glutathione level of the kidney after the inhibitor [8, 9]: decreased to a very low value; glutathione level of the liver after the inhibitor [8, 9]: decreased to a very low value
CCOC(=O)CNC(=O)[C@H](CS)NC(=O)CC[C@H](N)C(=O)O [glutathione monoethyl ester, L-γ-Glutamyl-L Cysteinyl Glycyl Ethyl Ester] | – | – | – | – | – | – | – | – | – | – | – | effects on tissue glutathione levels compared with glutathione monomethyl ester ([5]; comparison of monoethyl with monomethyl ester): about the same
COC(=O)CNC(=O)[C@H](CS)NC(=O)CC[C@H](N)C(=O)O [glutathione monomethyl ester] | – | – | – | – | – | – | – | – | – | – | increased markedly | glutathione in the kidney [5]: increased substantially; glutathione level of the liver [5]: increased substantially; glutathione level in kidney [8, 10]: substantial increase; glutathione level in liver [8, 10]: substantial increase; fatalities (mice [7]; acetaminophen 5 mmole per kilogram, ester 10 mmole per kilogram 1 hour later, 15 mice, 7 days): no fatalities

From patent US4710489A, “Glutathione delivery system” (Cornell Research Foundation, Inc., priority 1985, dated 1987)
